Test results published in article PMC8286840, “Identifying SARS-CoV-2 antiviral compounds by screening for small molecule inhibitors of Nsp3 papain-like protease” (Biochemical Journal, 2021).
Counter-ions that a name gives are not always drawn. Like-named read-outs stand apart in the source and are kept apart here.

Assays:
[1] = target: T1, SARS-CoV-2 PLpro (nsp3 1564–1878) (Severe acute respiratory syndrome coronavirus 2, UniProt P0DTD1); test: biochemical; design: FRET-quenched peptide (Pro3) cleavage by PLpro, 10 min pre-incubation, slope over 20 min, normalised to no-compound control; settings: low concentration screen, read-out: % of control remaining
[2] = target: T1, SARS-CoV-2 PLpro (nsp3 1564–1878); test: biochemical; design: FRET-quenched peptide (Pro3) cleavage by PLpro, 10 min pre-incubation, slope over 20 min, normalised to no-compound control; settings: high concentration screen, read-out: % of control remaining

## CCOC(=O)CCC(=O)O[C@H]1[C@H](O[C@@H]2[C@@H](C)[C@H](O[C@H]3C[C@@](C)(OC)[C@@H](O)[C@H](C)O3)[C@@H](C)C(=O)O[C@H](CC)[C@@](C)(O)[C@H](O)[C@@H](C)C(=O)[C@H](C)C[C@@]2(C)O)O[C@H](C)C[C@@H]1N(C)C [Erythromycin Ethylsuccinate]
[1]; Well no.=5126
  remaining activity at 1.25 µM: 100%
[2]; Well no.=5126
  remaining activity at 3.75 µM: 102%

## CN(C)CCC[C@@]1(c2ccc(F)cc2)OCc2cc(C#N)ccc21 [Escitalopram Oxalate]
[1]; Well no.=5128
  remaining activity at 1.25 µM: 109%
[2]; Well no.=5128
  remaining activity at 3.75 µM: 107%

## CN(C)CCC[C@@]1(c2ccc(F)cc2)OCc2cc(C#N)ccc21 [Escitalopram]
[1]; Well no.=1880
  remaining activity at 1.25 µM: 95.4%
[2]; Well no.=1880
  remaining activity at 3.75 µM: 94.3%

## O=c1ccc2cc(O)c(O)cc2o1 [Esculetin]
[1]; Well no.=3988
  remaining activity at 1.25 µM: 101%
[2]; Well no.=3988
  remaining activity at 3.75 µM: 98.6%

## COC(=O)CCc1ccc(OCC(O)CNC(C)C)cc1 (stereo not shown) [Esmolol (hydrochloride)]
[1]; Well no.=6651
  remaining activity at 1.25 µM: 105%
[2]; Well no.=6651
  remaining activity at 3.75 µM: 107%

## COC(=O)CCc1ccc(OCC(O)CNC(C)C)cc1 (stereo not shown) [Esmolol]
[1]; Well no.=2286
  remaining activity at 1.25 µM: 96.3%
[2]; Well no.=2286
  remaining activity at 3.75 µM: 96.8%

## COc1ccc2[nH]c([S@@+]([O-])Cc3ncc(C)c(OC)c3C)nc2c1 [Esomeprazole]
[1]; Well no.=2032
  remaining activity at 1.25 µM: 108%
[2]; Well no.=2032
  remaining activity at 3.75 µM: 106%

## C[C@]12CC[C@@H]3c4ccc(OC(=O)c5ccccc5)cc4CC[C@H]3[C@@H]1CC[C@@H]2O [Estradiol Benzoate]
[1]; Well no.=5134
  remaining activity at 1.25 µM: 105%
[2]; Well no.=5134
  remaining activity at 3.75 µM: 104%

## CCCCC(=O)O[C@H]1CC[C@H]2[C@@H]3CCc4cc(O)ccc4[C@H]3CC[C@]12C [Estradiol valerate]
[1]; Well no.=5365
  remaining activity at 1.25 µM: 95.5%
[2]; Well no.=5365
  remaining activity at 3.75 µM: 99.5%

## C[C@]12CC[C@@H]3c4ccc(O)cc4CC[C@H]3[C@@H]1CC[C@@H]2O [Estradiol]
[1]; Well no.=2034
  remaining activity at 1.25 µM: 99.3%
[1]; Well no.=6449
  remaining activity at 1.25 µM: 98.6%
[2]; Well no.=2034
  remaining activity at 3.75 µM: 96.6%
[2]; Well no.=6449
  remaining activity at 3.75 µM: 101%

## C[C@]12CC[C@@H]3c4ccc(O)cc4CC[C@H]3[C@@H]1C[C@@H](O)[C@@H]2O [Estriol]
[1]; Well no.=2036
  remaining activity at 1.25 µM: 105%
[1]; Well no.=6489
  remaining activity at 1.25 µM: 104%
[2]; Well no.=2036
  remaining activity at 3.75 µM: 104%
[2]; Well no.=6489
  remaining activity at 3.75 µM: 108%

## C[C@]12CC[C@@H]3c4ccc(O)cc4CC[C@H]3[C@@H]1CCC2=O [Estrone]
[1]; Well no.=559
  remaining activity at 1.25 µM: 101%
[1]; Well no.=2038
  remaining activity at 1.25 µM: 103%
[1]; Well no.=6445
  remaining activity at 1.25 µM: 102%
[2]; Well no.=559
  remaining activity at 3.75 µM: 98.9%
[2]; Well no.=2038
  remaining activity at 3.75 µM: 104%
[2]; Well no.=6445
  remaining activity at 3.75 µM: 96%

## CCOC(=O)c1cnc2c(cnn2CC)c1NN=C(C)C [Etazolate hydrochloride]
[1]; Well no.=550
  remaining activity at 1.25 µM: 101%
[2]; Well no.=550
  remaining activity at 3.75 µM: 103%

## CCOC(=O)c1cnc2c(cnn2CC)c1NN=C(C)C [Etazolate]
[1]; Well no.=2144
  remaining activity at 1.25 µM: 93.8%
[2]; Well no.=2144
  remaining activity at 3.75 µM: 97.1%

## C=C(CC)C(=O)c1ccc(OCC(=O)O)c(Cl)c1Cl [Ethacrynic Acid]
[1]; Well no.=1865
  remaining activity at 1.25 µM: 95.6%
[2]; Well no.=1865
  remaining activity at 3.75 µM: 94.6%

## CC[C@@H](CO)NCCN[C@@H](CC)CO [Ethambutol HCl]
[1]; Well no.=5072
  remaining activity at 1.25 µM: 99.5%
[2]; Well no.=5072
  remaining activity at 3.75 µM: 100%

## O=S(=O)(O)c1cc(O)ccc1O [Ethamsylate]
[1]; Well no.=6763
  remaining activity at 1.25 µM: 103%
[2]; Well no.=6763
  remaining activity at 3.75 µM: 89.6%

## C#C[C@]1(O)CC[C@H]2[C@@H]3CCc4cc(O)ccc4[C@H]3CC[C@@]21C [Ethinyl Estradiol]
[1]; Well no.=5333
  remaining activity at 1.25 µM: 98.9%
[2]; Well no.=5333
  remaining activity at 3.75 µM: 98.6%

## CCc1cc(C(N)=S)ccn1 [Ethionamide]
[1]; Well no.=5347
  remaining activity at 1.25 µM: 96.4%
[2]; Well no.=5347
  remaining activity at 3.75 µM: 95.4%

## C#C[C@]1(O)CC[C@H]2[C@@H]3CCC4=CC(=O)CC[C@]4(C)[C@H]3CC[C@@]21C [Ethisterone]
[1]; Well no.=2030
  remaining activity at 1.25 µM: 101%
[2]; Well no.=2030
  remaining activity at 3.75 µM: 101%

## CCC1(C)CC(=O)NC1=O (stereo not shown) [Ethosuximide]
[1]; Well no.=653
  remaining activity at 1.25 µM: 96.4%
[2]; Well no.=653
  remaining activity at 3.75 µM: 97.7%

## CCOc1ccc2c(c1)C(C)=CC(C)(C)N2 [Ethoxyquin]
[1]; Well no.=4145
  remaining activity at 1.25 µM: 93.7%
[2]; Well no.=4145
  remaining activity at 3.75 µM: 96.9%

## CCC(C(=O)O)C(=O)O [Ethylmalonic acid]
[1]; Well no.=6875
  remaining activity at 1.25 µM: 94.5%
[2]; Well no.=6875
  remaining activity at 3.75 µM: 93.4%

## C#C[C@]1(OC(C)=O)CC[C@H]2[C@@H]3CCC4=C[C@@H](OC(C)=O)CC[C@@H]4[C@H]3CC[C@@]21C [Ethynodiol diacetate]
[1]; Well no.=5373
  remaining activity at 1.25 µM: 92.3%
[2]; Well no.=5373
  remaining activity at 3.75 µM: 92.2%

## C#C[C@]1(O)CC[C@H]2[C@@H]3CCc4cc(O)ccc4[C@H]3CC[C@@]21C [Ethynyl Estradiol]
[1]; Well no.=6487
  remaining activity at 1.25 µM: 103%
[2]; Well no.=6487
  remaining activity at 3.75 µM: 102%

## CC(O)(P(=O)(O)O)P(=O)(O)O [Etidronate]
[1]; Well no.=2068
  remaining activity at 1.25 µM: 96.4%
[1]; Well no.=8826
  remaining activity at 1.25 µM: 85.3%
[2]; Well no.=2068
  remaining activity at 3.75 µM: 97.5%
[2]; Well no.=8826
  remaining activity at 3.75 µM: 87.6%

## CCNC1=Nc2ccc(Cl)cc2C(C)(c2ccccc2)O1 (stereo not shown) [Etifoxine hydrochloride]
[1]; Well no.=6081
  remaining activity at 1.25 µM: 106%
[2]; Well no.=6081
  remaining activity at 3.75 µM: 104%

## CCc1cccc2c3c([nH]c12)C(CC)(CC(=O)O)OCC3 (stereo not shown) [Etodolac]
[1]; Well no.=740
  remaining activity at 1.25 µM: 95.3%
[2]; Well no.=740
  remaining activity at 3.75 µM: 97.9%

## CCOC(=O)c1cncn1[C@H](C)c1ccccc1 [Etomidate]
[1]; Well no.=5187
  remaining activity at 1.25 µM: 100%
[2]; Well no.=5187
  remaining activity at 3.75 µM: 101%

## COc1cc([C@@H]2c3cc4c(cc3[C@@H](O[C@@H]3O[C@@H]5CO[C@@H](C)O[C@H]5[C@H](O)[C@H]3O)[C@H]3COC(=O)[C@H]23)OCO4)cc(OC)c1O [Etoposide]
[1]; Well no.=454
  remaining activity at 1.25 µM: 103%
[1]; Well no.=1670
  remaining activity at 1.25 µM: 99.8%
[1]; Well no.=6154
  remaining activity at 1.25 µM: 102%
[2]; Well no.=454
  remaining activity at 3.75 µM: 97.1%
[2]; Well no.=1670
  remaining activity at 3.75 µM: 99.3%
[2]; Well no.=3279
  remaining activity at 3.75 µM: 102%
[2]; Well no.=6154
  remaining activity at 3.75 µM: 103%

## Cc1ccc(-c2ncc(Cl)cc2-c2ccc(S(C)(=O)=O)cc2)cn1 [Etoricoxib]
[1]; Well no.=1925
  remaining activity at 1.25 µM: 106%
[2]; Well no.=1925
  remaining activity at 3.75 µM: 106%

## CCOC(=O)/C=C(C)/C=C/C=C(C)/C=C/c1c(C)cc(OC)c(C)c1C [Etretinate]
[1]; Well no.=2070
  remaining activity at 1.25 µM: 102%
[2]; Well no.=2070
  remaining activity at 3.75 µM: 101%
